Key:
C57 mice [1] = test: forced swimming test in mice; assay type: in vivo; conditions: 3 mg/kg p.o.; for immobility time during minutes 2-6, Mean value: one hour after the administration
Excerpt: (§1) The core manifestations of depression are despair, helplessness, and anhedonia. The forced swimming test is commonly used to evaluate despair-like behavior. In this test, the animal is placed in an unpleasant and inescapable environment (a water tank). […] Anhedonia means a loss of interest in things that were once pleasurable; in rodents, it is typically manifested as a reduced preference for sweet foods (sucrose). Therefore, the in vivo efficacy of the compounds of the examples of the present disclosure in mice can be evaluated by forced swimming and sucrose preference tests.
(§2) Female/male C57 mice, purchased from SPF (Suzhou) Biotechnology Co., Ltd.
(§3) Note: ①Vehicle: 5% of DMSO + 5% of HS-15 + 90% of 20% hydroxypropyl-β-cyclodextrin (10 mL/kg, p.o.).
Forced swimming: Animals were divided into a control group and various test drug administration dose groups, which were subjected to vehicle and test drug administration, respectively. One hour after the administration, the animals were placed in a 25 °C plexiglass cylinder with a water depth of 20 cm. The swimming status of the animals in the water was recorded by video, and the immobility time of the animals (characterized by floating in the water and stopping struggling) during minutes 2-6 was recorded and analyzed.
(§4) Experimental data were expressed as χ ± SEM. One-way analysis of variance was employed, and pairwise comparisons were performed using Dunnett's multiple comparisons tests. The floating immobility time, swimming time, and struggling time were recorded.

[2] = in vivo pharmacokinetic experiment in mice; parameters: species or system ICR mice; conditions: male, ICR, mouse; oral intragastric administration 10 mg/kg, single, plasma
Experimental: Male ICR mice were subjected to oral intragastric administration. The plasma concentrations of the compounds of the present disclosure in the mice were measured, the PK parameters were calculated, and pharmacokinetic evaluation was performed on the compounds of the present disclosure.
Drug preparation: according to the weight of the weighed drug, the preparation volume was calculated; 5% of DMSO and 5% of HS-15 were added sequentially; after the drug was fully dissolved, 90% of a 20% aqueous β-cyclodextrin solution was added, and the mixture was well mixed for later use.
Route of administration: oral intragastric administration, at a dose of 10 mg/kg.
Administration frequency and duration: single administration.
ICR mice were stratified according to body weight and then randomly grouped, with 9 mice per group. The mice were fasted overnight prior to the experiment. The mice were subjected to oral intragastric administration. At 0 h, 0.167 h, 0.333 h, 0.5 h, 1 h, 2 h, 4 h, 6 h, 8 h, 12 h, and 24 h, 50 µL of blood was collected from the fundus vein of each mouse into a sample tube containing heparin sodium as an anticoagulant, and then the tube was placed in wet ice and centrifuged at 4000 r·min^-1 for 10 min. The plasma was separated, and cryopreserved in a refrigerator at -80 °C for testing.
The concentrations of the plasma samples were measured by high-performance liquid chromatography-tandem mass spectrometry (LC-MS/MS). The retention times of the compounds and internal standard, chromatographic acquisitions, and integrals of chromatograms were processed using the software Analyst (AB SCIEX), and statistical analysis of the data was performed using the software Microsoft office. The plasma concentrations were processed using a non-compartmental model of the pharmacokinetic software WinNonlin™ Version 6.3 (Pharsight, Mountain View, CA), and the pharmacokinetic parameters were calculated using a linear log-trapezoidal method. Table 4. Results of pharmacokinetic experiment in mice

C57 mice [3] = test: sucrose preference test in mice; assay type: in vivo; conditions: 3 mg/kg p.o.; for Sucrose preference degree, Mean value: mice with chronic stress, 2 h free drinking
Excerpt: as §1, §2, §3
Sugar preference: D1: a 1% sucrose solution was provided on both sides; D2/3: drinking water was provided on one side, while a 1% sucrose solution was provided on the other side; D4: water and food were deprived; D5: sucrose preference degree was tested. During the test, the mice with chronic stress were subjected to administration according to the experimental groups. After the administration, pre-weighed sucrose solution and drinking water were provided on […]. The animals were allowed free access to drinking for 2 h in a dark environment, and during this period, the positions of the sucrose solution and drinking water were switched at the 1-hour mark.
as §4
Sucrose preference degree (%) = sucrose solution consumption/(sucrose solution consumption + purified water consumption) × 100%.

Row | Structure (SMILES) | immobility time during minutes 2-6, Mean value (C57 mice [1]) [s] | effect on immobility time compared to the blank group (C57 mice [1]; conclusion in words) | AUC(0-t) [2] [ng·h/mL] | Cmax [2] [ng/mL] | Tmax [2] [h] | half-life [2] [h] | Sucrose preference degree, Mean value (C57 mice [3]) [%] | effect on sucrose preference degree compared to the blank group (C57 mice [3]; conclusion in words)
1 | C[C@@H]1C[C@H](C(=O)Cn2ncnn2)[C@@]2(C)CC[C@H]3[C@@H](CC[C@@H]4C[C@](C)(O)[C@@H](C)C[C@@H]43)[C@H]12 [Example 9, 1-((2S,3S,5R,8R,9R,10S,13S,14S,15R,17S)-3-Hydroxy-2,3,13,15-tetramethylhexadecahydro-1H-cyclopenta[a]phenanthren-17-yl)-2-(2H-tetrazol-2-yl)ethan-1-one] | 54.68 | significantly reduce the immobility time | 23600 | 3480 | 0.33 | 2.35 | 88.37 | significantly improve the sucrose preference degree
2 | C[C@H]1C[C@H]2[C@H](CC[C@@H]3[C@@H]2CC[C@]2(C)[C@@H](C(=O)Cn4ncnn4)CC[C@@H]32)C[C@]1(C)O [Example 20, 1-((2S,3S,5R,8R,9R,10S,13S,14S,17S)-3-Hydroxy-2,3,13-trimethylhexadecahydro-1H-cyclopenta[a]phenanthren-17-yl)-2-(2H-tetrazol-2-yl)ethan-1-one] |  |  | 32200 | 2580 | 0.5 | 2.59 |  | 
3 | C[C@@]1(O)CC[C@H]2[C@H](CC[C@@H]3[C@@H]2CC[C@]2(C)[C@@H](C(=O)Cn4cc(C#N)cn4)CC[C@@H]32)C1 [Sage-217, reference compound] | 56.38 |  | 9160 | 1510 | 1 |  | 84.31 | 

From EP4711377A1, “STEROID COMPOUND, PREPARATION METHOD THEREFOR, AND USE THEREOF” (Shujing Biopharma Co., Ltd, priority 2023, dated 2024)
